Experimental data taken from US10124004B2, “Pyrido[3,4-d]pyrimidine derivative and pharmaceutically acceptable salt thereof” (Teijin Pharma Limited, priority 2015, dated 2018).

How the values were obtained:
CDK4/cyclin D3 = molecular target: T1, CDK4/cyclin D3 (Homo sapiens, UniProt P11802); assay: Human CDK4/cyclin D3 inhibitory activity (QS S Assist CDK4/Cyclin D3_FP Kit, IMAP fluorescence polarization); format: biochemical; settings: Human CDK4/cyclin D3 inhibitory activity; read-out: CDK4 Activity symbol
T1 construct: purchased Carna Biosciences, Inc. QS S Assist CDK4/Cyclin D3_FP Kit
How it was run: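 IMAP fluorescence-polarization kinase assay with kit ATP/substrate/metal mix and 12.5 to 25 ng/well enzyme in 20 mM HEPES pH 7.4, 0.01% Tween20, 2 mM DTT. Reaction ran 45 min at room temperature, then binding reagent was added for 30 min in the dark. IC50 was taken from dose-response fits of percent inhibition.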

CDK2/cyclin A2 = molecular target: T2, CDK2/cyclin A2 (Homo sapiens, UniProt P24941); assay: Human CDK2/cyclin A2 inhibitory activity (QS S Assist CDK2/Cyclin A2_FP Kit, IMAP fluorescence polarization); format: biochemical; settings: Human CDK2/cyclin A2 inhibitory activity; read-out: CDK2 Activity symbol
T2 construct: purchased Carna Biosciences, Inc. QS S Assist CDK2/Cyclin A2_FP Kit
How it was run: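 Kinase activity read as fluorescence polarization (485/535 nm) after phosphorylated fluorescent substrate binds IMAP reagent (30 min, RT, dark). Enzyme (2.5 ng/well) reacted 60 min at RT with ATP/substrate/metal in HEPES pH 7.4 buffer with Tween 20 and DTT; no-enzyme wells define 0% activity; IC50 by curve fit.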

T1 sequence (P11802 whole entry): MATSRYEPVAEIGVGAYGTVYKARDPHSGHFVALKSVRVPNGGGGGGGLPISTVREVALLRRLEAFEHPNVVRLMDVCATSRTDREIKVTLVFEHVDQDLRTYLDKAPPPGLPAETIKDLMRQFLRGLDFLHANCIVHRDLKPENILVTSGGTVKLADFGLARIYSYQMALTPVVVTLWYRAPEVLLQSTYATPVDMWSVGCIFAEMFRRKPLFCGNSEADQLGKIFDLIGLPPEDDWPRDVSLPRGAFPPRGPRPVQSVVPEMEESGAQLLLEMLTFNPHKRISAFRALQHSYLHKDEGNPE
T1 sequence (P30281 whole entry partner): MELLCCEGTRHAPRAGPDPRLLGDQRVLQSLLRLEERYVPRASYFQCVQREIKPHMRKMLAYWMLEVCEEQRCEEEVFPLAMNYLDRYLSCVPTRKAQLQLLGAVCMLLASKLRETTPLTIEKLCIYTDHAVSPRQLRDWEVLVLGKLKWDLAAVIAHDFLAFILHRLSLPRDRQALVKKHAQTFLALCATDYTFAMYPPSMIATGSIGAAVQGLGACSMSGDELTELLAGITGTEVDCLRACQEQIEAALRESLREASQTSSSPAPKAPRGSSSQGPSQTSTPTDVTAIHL

Row | IC50 (CDK4/cyclin D3) [nM] | IC50 (CDK2/cyclin A2) [nM] | Structure (SMILES)
1 | < 10 | ≥ 100 | CO[C@H](C)c1cc2cnc(Nc3ccc(N4CCC(C)(N)CC4)nn3)nc2c(NC(C)C)n1 [Compound 560]
2 | < 10 | ≥ 100 | CC(C)Nc1nc([C@@H](C)O)cc2cnc(Nc3ccc(N4CCC(C)(N)CC4)nn3)nc12 [Compound 561]
3 | < 10 | ≥ 100 | CC(C)Nc1nc([C@@H](C)O)cc2cnc(Nc3ccc(N4CC5(CNC5)C4)nn3)nc12 [Compound 562]
4 | < 10 | ≥ 100 | CC(C)Nc1nc([C@@H](C)O)cc2cnc(Nc3ccc(O[C@H]4CCNC4)cn3)nc12 [Compound 566]
5 | < 10 | ≥ 100 | CC(C)Nc1nc([C@@H](C)O)cc2cnc(Nc3ccc(O[C@@H]4CCNC[C@H]4F)cn3)nc12 [Compound 567]
6 | < 10 | ≥ 100 | CC(C)Nc1nc([C@@H](C)O)cc2cnc(Nc3ccc(O[C@H]4CCNC[C@H]4F)cn3)nc12 [Compound 569]
7 | < 10 | ≥ 100 | CC(C)Nc1nc([C@@H](C)O)cc2cnc(Nc3ccc(O[C@@H]4CCNC4)cn3)nc12 [Compound 572]
8 | < 10 | ≥ 100 | CC(C)Nc1nc([C@@H](C)O)cc2cnc(Nc3ccc(N4CC5(CCN5)C4)nn3)nc12 [Compound 573]
9 | < 10 | ≥ 100 | CC(C)Nc1nc([C@@H](C)O)cc2cnc(Nc3ccc(N4CC5(CCNC5)C4)nn3)nc12 [Compound 574]
10 | < 10 | ≥ 100 | CC(C)Nc1nc([C@@H](C)O)cc2cnc(Nc3ccc(N4CC5(CCNCC5)C4)nn3)nc12 [Compound 575]
11 | < 10 | ≥ 100 | CC(C)Nc1nc([C@@H](C)O)cc2cnc(Nc3ccc(N4CC5(CC(N)C5)C4)nn3)nc12 [Compound 576]
12 | < 10 | ≥ 100 | CC(C)Nc1nc([C@@H](C)O)cc2cnc(Nc3ccc(OCC4CNC4)nn3)nc12 [Compound 579]
13 | < 10 | ≥ 100 | CC(C)Nc1nc([C@@H](C)O)cc2cnc(Nc3ccc(N4CCC(N)C4=O)cn3)nc12 (some centres unmarked) [Compound 583]
14 | < 10 | ≥ 100 | CC(C)Nc1nc([C@@H](C)O)cc2cnc(Nc3ccc(N4CCN(C(C)C)CC4=O)cn3)nc12 [Compound 584]
15 | < 10 | ≥ 100 | CC(C)Nc1nc([C@@H](C)O)cc2cnc(Nc3ccc(N4CCN(C(C)C)CC4)nn3)nc12 [Compound 585]
16 | < 10 | ≥ 100 | CC(C)CN1CCN(c2ccc(Nc3ncc4cc([C@@H](C)O)nc(NC(C)C)c4n3)nn2)CC1 [Compound 586]
17 | < 10 | ≥ 100 | CC(C)Nc1nc([C@@H](C)O)cc2cnc(Nc3ccc(N4CCN(C(C)CO)CC4)nn3)nc12 (some centres unmarked) [Compound 588]
18 | < 10 | ≥ 100 | C[C@@H](O)c1cc2cnc(Nc3ccc(N4CCC(O)CC4)nn3)nc2c(NC2CCC(C)(C)OC2)n1 (some centres unmarked) [Compound 589]
19 | < 10 | ≥ 100 | COC1CCC(Nc2nc([C@@H](C)O)cc3cnc(Nc4ccc(N5CCC(O)CC5)nn4)nc23)CC1 (some centres unmarked) [Compound 590]
20 | < 10 | ≥ 100 | CO[C@H](C)c1cc2cnc(Nc3ccc(N4CCCC(N)C4=O)cn3)nc2c(NC(C)C)n1 (some centres unmarked) [Compound 591]
21 | < 10 | ≥ 100 | CNCCOc1ccc(Nc2ncc3cc([C@@H](C)O)nc(NC4CCC(OC)CC4)c3n2)nc1 (some centres unmarked) [Compound 592]
22 | < 10 | ≥ 100 | CC(C)Nc1nc([C@@H](C)O)cc2cnc(Nc3ccc(N4CCCC(N)C4=O)cn3)nc12 (some centres unmarked) [Compound 593]
23 | < 10 | ≥ 100 | C[C@@H](O)c1cc2cnc(Nc3ccc(N4CCC(O)CC4)nn3)nc2c(N[C@H]2CCCOC2)n1 [Compound 595]
24 | < 10 | ≥ 100 | CC(C)CN1CCN(c2ccc(Nc3ncc4cc([C@@H](C)O)nc(NC(C)C)c4n3)nc2)C(=O)C1 [Compound 596]
25 | < 10 | ≥ 100 | CC(C)Nc1nc([C@@H](C)O)cc2cnc(Nc3ccc(N4CCN(CCO)CC4=O)cn3)nc12 [Compound 597]
26 | < 10 | ≥ 100 | C[C@@H](O)c1cc2cnc(Nc3ccc(OCCN(C)C)cn3)nc2c(NC2CCC(C)(C)OC2)n1 (some centres unmarked) [Compound 600]
27 | < 10 | ≥ 100 | CNC1(C)CCN(c2ccc(Nc3ncc4cc([C@@H](C)O)nc(NC(C)C)c4n3)nn2)CC1 [Compound 601]
28 | < 10 | ≥ 100 | CC(C)Nc1nc([C@@H](C)O)cc2cnc(Nc3ccc(N4CCN(C5CCC5)CC4)nn3)nc12 [Compound 602]
